Tests used:
[1] = system: B. subtilis; test: Inhibition of endospore germination (outgrowth), plating on nutrient agar; format: cell-based, Bacillus subtilis; details: for Average Inhibition of Spore Germination: Table 2, B. subtilis, 2 hours treatment; for Average Percent Inhibition of B. subtilis: Table 5 (FIG. 4)
Procedure: (§1) Heated samples were treated with 1, 5, 10% of GTP (mixed green tea polyphenols), LTP (lipophilic green tea polyphenols), EGCg (epigallocatechingallate), or EGCg-Stearate for 2 hours, diluted and plated onto nutrient agar plates, and incubated at 37° C. for 24 hours. Non-starved cells and starved cells without treatment were used as controls.
(§2) Germination, specifically outgrowth, of purified endospores in Bacillus cereus, B. megaterium, and B. subtilis was studied by treating the bacteria with four different green tea polyphenols: GTP (mixed green tea polyphenols), LTP (lipophilic green tea polyphenols), EGCg (epigallocatechingallate), and EGCg-Stearate.

[2] = system: Bacillus megaterium spores; test: Viability of heat-treated spores after treatment, colony count on nutrient agar; format: cell-based; details: 10%
Procedure: Bacillus megaterium spores were induced through process of starvation for 2 hours in sterile deionized water and then heated at 90° C. for 20 minutes. The heated samples were treated with 10% of EGCG or EGCG-ester for 1 hour or 24 hours respectively and then plated onto nutrient agar plates with a countable range of 150 to 300 CPU (colony counting unit). The non-starved cells and starved cells without treatment were used as controls.

[3] = system: B. cereus; test: Inhibition of endospore germination (outgrowth), plating on nutrient agar; format: cell-based, Bacillus cereus; details: for Average Inhibition of Spore Germination: Table 2, B. cereus, 2 hours treatment; for Average Percent Inhibition of B. cereus: Table 3 (FIG. 2)
Procedure: as §1, §2

[4] = system: B. megaterium; test: as above; format: cell-based, Bacillus megaterium; details: for Average Inhibition of Spore Germination: Table 2, B. megaterium, 2 hours treatment; for Average Percent Inhibition of B. megaterium: Table 4 (FIG. 3)
Procedure: as §1, §2

Compound	Average Inhibition of Spore Germination ([1]; 1%) [%]	Average Inhibition of Spore Germination ([1]; 5%) [%]	Average Inhibition of Spore Germination ([1]; 10%) [%]	Average Percent Inhibition of B. subtilis ([1]; concentration 1%) [%]	Average Percent Inhibition of B. subtilis ([1]; concentration 5%) [%]	Inhibition of viability of Bacillus megaterium spores compared to the control ([2]; after 24 hours-incubation at 37° C.) [%]	Viable cells or colonies of Bacillus megaterium detected ([2]; both 1 hour and 24 hours treated samples)	Average Inhibition of Spore Germination ([3]; 1%) [%]	Average Inhibition of Spore Germination ([3]; 5%) [%]	Average Inhibition of Spore Germination ([3]; 10%) [%]	Average Percent Inhibition of B. cereus ([3]; concentration 1%) [%]	Average Percent Inhibition of B. cereus ([3]; concentration 5%) [%]	Average Percent Inhibition of B. cereus ([3]; concentration 10%) [%]	Average Inhibition of Spore Germination ([4]; 10%) [%]	Average Percent Inhibition of B. megaterium ([4]; concentration 1%) [%]	Average Percent Inhibition of B. megaterium ([4]; concentration 5%) [%]	Average Percent Inhibition of B. megaterium ([4]; concentration 10%) [%]	Average Inhibition of Spore Germination ([4]; 1%) [%]	Average Inhibition of Spore Germination ([4]; 5%) [%]
O=C(O[C@@H]1Cc2c(O)cc(O)cc2O[C@@H]1c1cc(O)c(O)c(O)c1)c1cc(O)c(O)c(O)c1 [EGCg, (−)-epigallocatechin-3-gallate]	52.9	45.1	66.1	99.95	100	90	no viable cells or colonies	16.9	25.7	33.0	94.18	91.68	99	100.0	96.39	99.48	99.85	–	–
CCCCCCCCCCCCCCCCCC(=O)Oc1c(O)cc([C@H]2Oc3cc(O)cc(O)c3C[C@H]2OC(=O)c2cc(O)c(O)c(O)c2)cc1O [EGCg-Stearate, (−)-epigallocatechin-3-gallate (EGCG) esterified at the 4′ position with stearic acid]	55.0	58.1	69.2	99.93	98.77	–	–	72.6	56.6	90.5	88.81	98.49	98	79.0	99.84	91.91	97.14	70.5	75.0

Source: patent US20150025132A1, “COMPOSITIONS AND METHODS FOR INHIBITING ENDOSPORES USING GREEN TEA POLYPHENOLS” (priority 2013, published 2015)
